In ChEMBL document CHEMBL4602723, “Stalobacin: Discovery of Novel Lipopeptide Antibiotics with Potent Antibacterial Activity against Multidrug-Resistant Bacteria” (J Med Chem, 2020):
Values after ≈ are worked out from the molar mass of the structure shown. Active and inactive are the calls of the source. The calls are words filed in the database; no cut-off is given here.

What was measured:
[1] = test system: Enterococcus faecium; test: Antibacterial activity against Vancomycin-resistant Enterococcus faecium SR23598 (VanB) assessed as inhibition of bacterial growth incubated for 20 hrs by microdilution broth method; assay type: functional; settings: SR23598, 20 h
[2] = test system: Enterococcus faecium; test: Antibacterial activity against Vancomycin-resistant Enterococcus faecium SRM1101 (c_VanB) assessed as inhibition of bacterial growth incubated for 20 hrs by microdilution broth method; assay type: functional; settings: SRM1101, 20 h
[3] = test system: Enterococcus faecium; test: Antibacterial activity against Vancomycin-resistant Enterococcus faecium SR7940 (VanA) assessed as inhibition of bacterial growth incubated for 20 hrs by microdilution broth method; assay type: functional; settings: SR7940, 20 h
[4] = test system: Enterococcus faecium; test: Antibacterial activity against Enterococcus faecium SR16972 assessed as inhibition of bacterial growth incubated for 20 hrs by microdilution broth method; assay type: functional; settings: SR16972, 20 h
[5] = test system: Staphylococcus aureus; test: Antibacterial activity against Vancomycin-resistant Staphylococcus aureus HIP11714 assessed as inhibition of bacterial growth incubated for 20 hrs by microdilution broth method; assay type: functional; settings: HIP11714, 20 h
[6] = test system: Escherichia coli; test: Induction of morphological changes in Escherichia coli JC2 assessed as inflation of bacterial cell body; assay type: functional, organism-based
[7] = test system: Enterococcus faecalis; test: Antibacterial activity against Vancomycin-resistant Enterococcus faecalis SR7914 (VanA) assessed as inhibition of bacterial growth incubated for 20 hrs by microdilution broth method; assay type: functional; settings: SR7914, 20 h
[8] = test system: L1210; test: Cytotoxicity in mouse L1210 cells assessed as reduction in cell viability; assay type: cell-based
[9] = test system: Staphylococcus aureus; test: Potency index, ratio of MIC for linezolid to MIC for test compound for antibacterial activity against methicillin-resistant Staphylococcus aureus SR3637; assay type: functional
[10] = test system: P388; test: Cytotoxicity in mouse P388 cells assessed as reduction in cell viability; assay type: cell-based
[11] = test system: Klebsiella pneumoniae; test: Antibacterial activity against Klebsiella pneumoniae SR1 assessed as inhibition of bacterial growth incubated for 20 hrs by microdilution broth method; assay type: functional; settings: SR1, 20 h
[12] = test system: Staphylococcus aureus; test: Antibacterial activity against methicillin-resistant Staphylococcus aureus SR3637 assessed as inhibition of bacterial growth incubated for 20 hrs by microdilution broth method; assay type: functional; settings: SR3637, 20 h
[13] = test system: Staphylococcus aureus; test: Antibacterial activity against Staphylococcus aureus RN4220 assessed as inhibition of bacterial growth incubated for 20 hrs by microdilution broth method; assay type: functional; settings: RN4220, 20 h
[14] = test system: Streptococcus pneumoniae; test: Antibacterial activity against Streptococcus pneumoniae tupelo (VTSP) assessed as inhibition of bacterial growth incubated for 20 hrs by microdilution broth method; assay type: functional
[15] = test system: Enterococcus faecalis; test: Antibacterial activity against Vancomycin-resistant Enterococcus faecalis SR23630 (VanB) assessed as inhibition of bacterial growth incubated for 20 hrs by microdilution broth method; assay type: functional; settings: SR23630, 20 h
[16] = test system: Staphylococcus aureus; test: Potency index, ratio of MIC for vancomycin to MIC for test compound for antibacterial activity against methicillin-resistant Staphylococcus aureus SR3637; assay type: functional
[17] = test system: Staphylococcus aureus; test: Potency index, ratio of MIC for telavancin to MIC for test compound for antibacterial activity against methicillin-resistant Staphylococcus aureus SR3637; assay type: functional
[18] = test system: Staphylococcus aureus; test: Antibacterial activity against Staphylococcus aureus SMITH assessed as inhibition of bacterial growth incubated for 20 hrs by microdilution broth method; assay type: functional
[19] = test system: Streptococcus pneumoniae; test: Antibacterial activity against Streptococcus pneumoniae type 1 assessed as inhibition of bacterial growth incubated for 20 hrs by microdilution broth method; assay type: functional; settings: type 1, 20 h
[20] = test system: Staphylococcus aureus; test: Induction of morphological changes in Staphylococcus aureus RN4220 assessed as inflation of bacterial cell body; assay type: functional, organism-based
[21] = test system: Staphylococcus aureus; test: Antibacterial activity against Vancomycin-resistant Staphylococcus aureus HIP11983 assessed as inhibition of bacterial growth incubated for 20 hrs by microdilution broth method; assay type: functional; settings: HIP11983, 20 h
[22] = test system: Enterococcus faecalis; test: Antibacterial activity against Enterococcus faecalis SR1004 assessed as inhibition of bacterial growth incubated for 20 hrs by microdilution broth method; assay type: functional; settings: SR1004, 20 h
[23] = test system: Escherichia coli; test: Antibacterial activity against Escherichia coli JC2 assessed as inhibition of bacterial growth incubated for 20 hrs by microdilution broth method; assay type: functional; settings: JC2, 20 h
[24] = test system: Streptococcus pneumoniae; test: Antibacterial activity against Streptococcus pneumoniae SR11031 (PRSP) assessed as inhibition of bacterial growth incubated for 20 hrs by microdilution broth method; assay type: functional; settings: SR11031, 20 h

Row | Structure (SMILES) | MIC [1] [µg/mL] | MIC [2] [µg/mL] | MIC [3] [µg/mL] | MIC [4] [µg/mL] | MIC [5] [µg/mL] | MIC [7] [µg/mL] | MIC [11] [µg/mL] | MIC [12] [µg/mL] | MIC [13] [µg/mL] | MIC [14] [µg/mL] | MIC [15] [µg/mL] | MIC [18] [µg/mL] | MIC [19] [µg/mL] | MIC [21] [µg/mL] | MIC [22] [µg/mL] | MIC [23] [µg/mL] | MIC [24] [µg/mL] | also measured
1 | CC(=O)NC[C@H]1CN(c2ccc(N3CCOCC3)c(F)c2)C(=O)O1 [LINEZOLID] | 2 (≈ 5.93 µM) | 2 (≈ 5.93 µM) | 2 (≈ 5.93 µM) | 2 (≈ 5.93 µM) | – | – | – | – | – | – | – | – | – | – | – | – | – | –
2 | CCCCCC/C=C\CCCCC[C@@H]1C[C@H]1/C=C/C(O)C(=O)N[C@H](C(=O)N(C)[C@@H](CC(=O)O)C(=O)N(COC(C)(CC)C(NC(=O)C(NC(=O)[C@@H](N)CC(=O)O)C(O)C(O)CNC(=N)N)C(=O)NCC(=O)N[C@@H](CO)C(=O)O)[C@@]12C[C@@H]1CN(C(=N)N)C2=O)[C@H](O)C(=O)O (stereo partly drawn) | 0.004 (≈ 0.00302 µM) | 0.004 (≈ 0.00302 µM) | 0.004 (≈ 0.00302 µM) | 0.004 (≈ 0.00302 µM) | 0.004 (≈ 0.00302 µM) | 0.016 (≈ 0.0121 µM) | 1 (≈ 0.754 µM) | 0.008 (≈ 0.00604 µM) | 0.004 (≈ 0.00302 µM) | ≤ 0.004 | 0.004 (≈ 0.00302 µM) | 0.004 (≈ 0.00302 µM) | ≤ 0.004 | 0.004 (≈ 0.00302 µM) | 0.008 (≈ 0.00604 µM) | 4 (≈ 3.02 µM) | ≤ 0.004 | Activity [6]: Active; IC50 [8]: > 12.5 µg/mL; Ratio [9]: 125 - 250; IC50 [10]: > 12.5 µg/mL; Ratio [16]: 125 - 250; Ratio [17]: 125 - 250; Activity [20]: Active
3 | CCCCCC/C=C\CCCCC[C@@H]1C[C@H]1/C=C/C(O)C(=O)N[C@H](C(=O)N(C)[C@@H](CC(=O)O)C(=O)N(COC(C)(CC)C(NC(=O)C(NC(=O)[C@@H](N)CC(=O)O)C(O)C(O)CNC(=N)N)C(=O)NCC(=O)N[C@@H](CO)C(=O)O)[C@@]12C[C@@H]1CNC2=O)[C@H](O)C(=O)O (stereo partly drawn) | 1 (≈ 0.779 µM) | 1 (≈ 0.779 µM) | 2 (≈ 1.56 µM) | 4 (≈ 3.12 µM) | 0.5 (≈ 0.39 µM) | > 64 | 2 (≈ 1.56 µM) | 1 (≈ 0.779 µM) | 0.5 (≈ 0.39 µM) | ≤ 0.004 | > 64 | 0.5 (≈ 0.39 µM) | 0.25 (≈ 0.195 µM) | 1 (≈ 0.779 µM) | > 64 | 4 (≈ 3.12 µM) | 0.25 (≈ 0.195 µM) | –
4 | CCCCCCCCCCNCCN[C@@]1(C)C[C@H](O[C@H]2[C@H](Oc3c4cc5cc3Oc3ccc(cc3Cl)[C@@H](O)[C@@H](NC(=O)[C@@H](CC(C)C)NC)C(=O)N[C@@H](CC(N)=O)C(=O)N[C@H]5C(=O)N[C@H]3C(=O)N[C@H](C(=O)N[C@H](C(=O)O)c5cc(O)c(CNCP(=O)(O)O)c(O)c5-c5cc3ccc5O)[C@H](O)c3ccc(c(Cl)c3)O4)O[C@H](CO)[C@@H](O)[C@@H]2O)O[C@@H](C)[C@H]1O [TELAVANCIN] | 0.5 (≈ 0.285 µM) | 8 (≈ 4.56 µM) | 8 (≈ 4.56 µM) | 0.5 (≈ 0.285 µM) | 4 (≈ 2.28 µM) | 4 (≈ 2.28 µM) | – | 1 (≈ 0.57 µM) | 0.5 (≈ 0.285 µM) | ≤ 0.063 | 1 (≈ 0.57 µM) | 0.5 (≈ 0.285 µM) | ≤ 0.063 | 4 (≈ 2.28 µM) | 1 (≈ 0.57 µM) | – | ≤ 0.063 | –
5 | CN[C@H](CC(C)C)C(=O)N[C@H]1C(=O)N[C@@H](CC(N)=O)C(=O)N[C@H]2C(=O)N[C@H]3C(=O)N[C@H](C(=O)N[C@H](C(=O)O)c4cc(O)cc(O)c4-c4cc3ccc4O)[C@H](O)c3ccc(c(Cl)c3)Oc3cc2cc(c3O[C@@H]2O[C@H](CO)[C@@H](O)[C@H](O)[C@H]2O[C@H]2C[C@](C)(N)[C@H](O)[C@H](C)O2)Oc2ccc(cc2Cl)[C@H]1O [VANCOMYCIN] | > 64 | > 64 | > 64 | – | > 64 | > 64 | > 64 | – | – | 0.25 (≈ 0.173 µM) | 32 (≈ 22.1 µM) | – | 0.5 (≈ 0.345 µM) | > 64 | 1 (≈ 0.69 µM) | > 64 | 0.25 (≈ 0.173 µM) | –
